pIC50: −log10 of the molar value.
System: not listed separately
Test: Inhibition of GST-tagged bacterial beta-lactamase […] expressed in Escherichia coli BL21(DE3) using CCF2-FA as substrate by fluorescence assay
Parameters: species or system Bacteria
Conditions: not given

| Compound | pIC50 |
| --- | --- |
| NS(=O)(=O)c1cccc(-c2ccccn2)c1-c1nn[nH]n1 | 8.52 |
| NCCNC(=O)C[N+]12CC[N+](Cc3ccc(-c4ccc(C[C@H](C(=O)O)[C@H](Cc5ccccc5)C(=O)O)cc4)cc3)(CC1)CC2 | < 6.70 |
| OCc1ccc(-c2cccc(O)c2-c2nnn[nH]2)cc1 | 6.15 |
| NS(=O)(=O)c1cccc(-c2cccnc2)c1-c1nn[nH]n1 | 7.62 |
| NS(=O)(=O)c1cccc(-c2ccncc2)c1-c1nn[nH]n1 | 7.44 |
| NS(=O)(=O)c1cccc(-c2ccc(CO)cc2)c1-c1nn[nH]n1 | 8.62 |
| Cc1ccc(-c2cccc(S(=O)(=O)O)c2-c2nnn[nH]2)cc1 | 5.30 |
| NS(=O)(=O)c1ccnc(-c2ccc(CO)cc2)c1-c1nn[nH]n1 | 7.44 |
| CCCc1c(OCc2cccc(-c3ccccc3-c3nnn[nH]3)c2)ccc(C(C)=O)c1O | 7.46 |
| NS(=O)(=O)c1cncc(-c2ccc(CO)cc2)c1-c1nn[nH]n1 | 7.68 |
| c1ccc(-c2ccccc2-c2nn[nH]n2)cc1 | 7.36 |

System: not listed separately
Test: Inhibition of GST-tagged bacterial beta-lactamase IMP-1 expressed in Escherichia coli BL21(DE3) using CCF2-FA as substrate by fluorescence assay
Parameters: species or system Bacteria
Conditions: not given

| Compound | pIC50 |
| --- | --- |
| NS(=O)(=O)c1cccc(-c2ccccn2)c1-c1nn[nH]n1 | 6.48 |
| OCc1ccc(-c2cccc(O)c2-c2nnn[nH]2)cc1 | < 4.70 |
| NS(=O)(=O)c1cccc(-c2cccnc2)c1-c1nn[nH]n1 | 5.75 |
| NS(=O)(=O)c1cccc(-c2ccncc2)c1-c1nn[nH]n1 | 6.31 |
| NS(=O)(=O)c1cccc(-c2ccc(CO)cc2)c1-c1nn[nH]n1 | 7.34 |
| Cc1ccc(-c2cccc(S(=O)(=O)O)c2-c2nnn[nH]2)cc1 | 5.63 |
| NS(=O)(=O)c1ccnc(-c2ccc(CO)cc2)c1-c1nn[nH]n1 | 6.12 |
| CCCc1c(OCc2cccc(-c3ccccc3-c3nnn[nH]3)c2)ccc(C(C)=O)c1O | 9.00 |
| NS(=O)(=O)c1cncc(-c2ccc(CO)cc2)c1-c1nn[nH]n1 | 6.17 |
| c1ccc(-c2ccccc2-c2nn[nH]n2)cc1 | 8.70 |

System: not listed separately
Test: Inhibition of GST-tagged bacterial beta-lactamase VIM-1 expressed in Escherichia coli BL21(DE3) using CCF2-FA as substrate by fluorescence assay
Parameters: species or system Bacteria
Conditions: not given

| Compound | pIC50 |
| --- | --- |
| NS(=O)(=O)c1cccc(-c2ccccn2)c1-c1nn[nH]n1 | 7.05 |
| NCCNC(=O)C[N+]12CC[N+](Cc3ccc(-c4ccc(C[C@H](C(=O)O)[C@H](Cc5ccccc5)C(=O)O)cc4)cc3)(CC1)CC2 | 8.55 |
| OCc1ccc(-c2cccc(O)c2-c2nnn[nH]2)cc1 | 5.14 |
| NS(=O)(=O)c1cccc(-c2cccnc2)c1-c1nn[nH]n1 | 6.57 |
| NS(=O)(=O)c1cccc(-c2ccncc2)c1-c1nn[nH]n1 | 6.55 |
| NS(=O)(=O)c1cccc(-c2ccc(CO)cc2)c1-c1nn[nH]n1 | 7.24 |
| Cc1ccc(-c2cccc(S(=O)(=O)O)c2-c2nnn[nH]2)cc1 | 5.06 |
| NS(=O)(=O)c1ccnc(-c2ccc(CO)cc2)c1-c1nn[nH]n1 | 5.38 |
| CCCc1c(OCc2cccc(-c3ccccc3-c3nnn[nH]3)c2)ccc(C(C)=O)c1O | 7.64 |
| NS(=O)(=O)c1cncc(-c2ccc(CO)cc2)c1-c1nn[nH]n1 | 6.17 |
| c1ccc(-c2ccccc2-c2nn[nH]n2)cc1 | 7.66 |

System: Escherichia coli
Test: Potentiation of imipenem-induced antibacterial activity against NDM-1 expressing Escherichia coli assessed as imipenem MIC incubated for 22 to 24 hrs (reference value: 32 ug/ml)
Type: functional
Conditions: time 22-24 hrs

| Compound | MITC95 |
| --- | --- |
| NS(=O)(=O)c1cccc(-c2ccccn2)c1-c1nn[nH]n1 | 0.78 µM |
| NS(=O)(=O)c1cccc(-c2cccnc2)c1-c1nn[nH]n1 | 0.39 µM |
| NS(=O)(=O)c1cccc(-c2ccncc2)c1-c1nn[nH]n1 | 0.45 µM |
| NS(=O)(=O)c1ccnc(-c2ccc(CO)cc2)c1-c1nn[nH]n1 | 2.3 µM |
| NS(=O)(=O)c1cncc(-c2ccc(CO)cc2)c1-c1nn[nH]n1 | 1.56 µM |

System: Serratia marcescens
Test: Potentiation of imipenem-induced antibacterial activity against IMP-1 expressing Serratia marcescens assessed as imipenem MIC incubated for 22 to 24 hrs (reference value: 16 ug/ml)
Type: functional
Conditions: time 22-24 hrs

| Compound | MITC95 |
| --- | --- |
| NS(=O)(=O)c1cccc(-c2cccnc2)c1-c1nn[nH]n1 | 50 µM |
| NS(=O)(=O)c1cccc(-c2ccncc2)c1-c1nn[nH]n1 | 9.37 µM |
| NS(=O)(=O)c1ccnc(-c2ccc(CO)cc2)c1-c1nn[nH]n1 | 37 µM |

System: Klebsiella pneumoniae
Test: Potentiation of imipenem-induced antibacterial activity against VIM-1 expressing Klebsiella pneumoniae assessed as imipenem MIC incubated for 22 to 24 hrs (reference value: 16 ug/ml)
Type: functional
Conditions: time 22-24 hrs

| Compound | MITC95 |
| --- | --- |
| NS(=O)(=O)c1cccc(-c2ccccn2)c1-c1nn[nH]n1 | 25 µM |
| NS(=O)(=O)c1cccc(-c2cccnc2)c1-c1nn[nH]n1 | 50 µM |
| NS(=O)(=O)c1cccc(-c2ccncc2)c1-c1nn[nH]n1 | 25 µM |
| NS(=O)(=O)c1cccc(-c2ccc(CO)cc2)c1-c1nn[nH]n1 | 50 µM |
| NS(=O)(=O)c1ccnc(-c2ccc(CO)cc2)c1-c1nn[nH]n1 | >200 µM |
| NS(=O)(=O)c1cncc(-c2ccc(CO)cc2)c1-c1nn[nH]n1 | 100 µM |

System: not listed separately
Test: Selectivity ratio of MITC50 for NDM-1 expressing Escherichia coli to IC50 for GST-tagged bacterial beta-lactamase […]
Conditions: not given

| Compound | Selectivity ratio |
| --- | --- |
| NS(=O)(=O)c1cccc(-c2cccnc2)c1-c1nn[nH]n1 | 16 |
| NS(=O)(=O)c1cccc(-c2ccncc2)c1-c1nn[nH]n1 | 12 |

System: not listed separately
Test: Selectivity ratio of MITC50 for IMP-1 expressing Serratia marcescens to IC50 for GST-tagged bacterial beta-lactamase IMP-1
Conditions: not given

| Compound | Selectivity ratio |
| --- | --- |
| NS(=O)(=O)c1cccc(-c2cccnc2)c1-c1nn[nH]n1 | 28 |
| NS(=O)(=O)c1cccc(-c2ccncc2)c1-c1nn[nH]n1 | 19 |

System: not listed separately
Test: Selectivity ratio of MITC50 for VIM-1 expressing Klebsiella pneumoniae to IC50 for GST-tagged bacterial beta-lactamase VIM-1
Conditions: not given

| Compound | Selectivity ratio |
| --- | --- |
| NS(=O)(=O)c1cccc(-c2cccnc2)c1-c1nn[nH]n1 | 185 |
| NS(=O)(=O)c1cccc(-c2ccncc2)c1-c1nn[nH]n1 | 87 |
